Results reported in patent publication US11932654B2, “Nimbolide analogs as anti-cancer agents and preparation thereof” (priority 2018, dated 2024).
pIC50: −log10 of the molar value.

Columns and labels:
Type in all cases: cell-based
[1] = test system: PC3 prostate cancer cell line; assay: In vitro anticancer activity, SRB assay, PC3; conditions: 48 h, NA = Not Active
Procedure: Cell culture: Human lung adenocarcinoma cell line (A549 cell line), pancreatic cancer cell line (Panc-1, Pan-02), prostate cancer cell line (DU145, PC3), Brest cancer cell line (MCF-7) was grown in DIEM (Dulbecco's modifications of eagle's medium with L-glutamine & 4.5 g/L glucose) supplemented with fetal bovine serum in a humidified atmosphere of a 5% CO2 at 37° C.
In vitro anticancer activity: Cells were harvested from exponential phase cultures by trypsinization, counted and plated in 96-well plate. Optimal seeding densities for different cell lines in each plate were 5000 cells per well. After 24 h cells were treated with \ the newly synthesized compound at a dose range of 0.1-100 μm final concentration. Thereafter, cells were allowed to grow for 48 h before determination of cell survival by the SRB assay. Then the cells were fixed with 10% cold trichloroacetic acid for 1 h at 4° C. After two washes with deionized water, fixed cells were stained with 50 μL of SRB solution (1% in acetic acid) for 30 min and subsequently washed twice with 1% acetic acid to remove unbound stain. The plates were left to dry at room temperature and bound stain was solubilized with 100 μL of 10 mM buffered Tris base for reading the […] at 540 nm.

[2] = test system: caspase-9; assay: Caspase assay activity, caspase-9, Panc-1 cells; conditions: fluorimetric assay, increasing concentrations
Procedure: Caspase assay activity: Caspase-3, caspase-8 and caspase-9 protease activities were determined using a commercial fluorescence assay kit according to the manufacturer's instructions, Briefly, pancreatic cancer cells were treated with different concentrations of IM-1372-Kn-13 for 24 h were re-suspended in 50 μL of chilled cell lysis buffer; cells were then incubated on ice for 10 min and centrifuged for 1 min in a micro-centrifuge (10,000 g). Then supernatants were transferred (cytosolic extract) to a fresh tube and protein concentration was assayed. Next, diluted 100 μg protein was added to 50 μL cell lysis buffer for each assay. Subsequently, 50 μL of 2× reaction buffer and 5 μL of the 4 mM Ac-DEVD AMC (caspase-3)/Ac-VETD-AMC (caspase-8)/[…] were added and incubated at 37° C. for 2 h (samples read at […] in a microtiter plate reader).

[3] = test system: p53; assay: Western blotting analysis on Panc-1 cell line, p53; conditions: panc-1 cells, various concentrations, 24 h, Western blot
Procedure: Western blotting analysis of IM-1372-Kn-13 on Panc-1 cell line: The cells were lysed in RIPA buffer (50 mM-tris (PH-7.4), 150 Min-Nacl, 1%-NP-40, 0.1%-SDS, 0.5%-Sodium-deoxycholate, 1 mM EDTA, 5 mM NaF, 5 mM Na—O-vandate, 1 mM PMSF, Protease inhibitor cocktail. The lysates were cleared by centrifugation at […] and concentration of protein was estimated by bradford assay. For Western blot analysis, equivalent amount of protein was resolved in SDS-PAGE and then transferred to polyvinylidene difluoride ([…]) membrane. Ti avoid non specific binding of antibodies, the membranes were blocked using 3% BSA in TBS with 0.5% Tween (TBST) for 1 h at room temperature. The membranes were then incubated in primary antibody overnight at 4° C. After removing excess primary antibody bound to membranes, blots were incubated with secondary anti body. Then the signal emitted was captured using chemiluminescence substrate.

## COC(=O)C[C@H]1[C@]2(C)C3=C(C)[C@H](C4=CC5OC4C(C(=O)OC)=C5C(=O)OC)C[C@@H]3O[C@@H]2[C@@H]2OC(=O)[C@]3(C)C=CC(=O)[C@@]1(C)C23 (stereo partly drawn) [A4]
[1]
  pIC50: 5.85
[2]
  activity of caspase-9: increased significantly in a dose-dependent manner
[3]
  expression of p53 protein: reduced
